Assay results published in ChEMBL document CHEMBL1201862, “PubChem BioAssay data set” (2004).
“And” between values parts separate entries of the source, which are not always exact repeats. Identical values can stand only once.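 Briefly, cells in 96-well plates were exposed to five compound concentrations for 48 h, and endpoints were estimated by linear interpolation. GI50 marks 50% less growth.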 The source made the active and inactive calls. No stated cut-off is given here; in the data, active = GI50 up to about 1.1 µM and inactive = higher.

How the values were obtained:
Assay in all cases: NCI tumour cell line growth inhibition, 48 h
786-0 = test system: 786-0
ACHN = test system: ACHN
BT-549 = test system: BT-549
DU-145 = test system: DU-145
HOP-62 = test system: HOP-62
HOP-92 = test system: HOP-92
HT-29 = test system: HT-29
Hs-578T = test system: Hs-578T
LOX IMVI = test system: LOX IMVI
M14 = test system: M14
MCF7 = test system: MCF7
MDA-MB-435 = test system: MDA-MB-435
MOLT-4 = test system: MOLT-4
NCI-H23 = test system: NCI-H23
NCI-H522 = test system: NCI-H522
RPMI-8226 = test system: RPMI-8226
SF-539 = test system: SF-539
SK-OV-3 = test system: SK-OV-3
U-251 = test system: U-251
UACC-257 = test system: UACC-257

Compound | GI50 (786-0) | GI50 (ACHN) | GI50 (BT-549) | GI50 (DU-145) | GI50 (HOP-62) | GI50 (HOP-92) | GI50 (HT-29) | GI50 (Hs-578T) | GI50 (LOX IMVI) | GI50 (M14) | GI50 (MCF7) | GI50 (MDA-MB-435) | GI50 (MOLT-4) | GI50 (NCI-H23) | GI50 (NCI-H522) | GI50 (RPMI-8226) | GI50 (SF-539) | GI50 (SK-OV-3) | GI50 (U-251) | GI50 (UACC-257)
Clc1ccccc1NN(Cc1ccccn1)c1ccccc1Cl | 16.9 µM (inactive) | 33.9 µM (inactive) | 25.1 µM (inactive) | 35.5 µM (inactive) | 17.9 µM (inactive) | 16.1 µM (inactive) | 14.6 µM (inactive) | 26.2 µM (inactive) | 18.6 µM (inactive) | 18.5 µM (inactive) | 36.1 µM (inactive) | 16.6 µM (inactive) | 17.3 µM (inactive) | 20 µM (inactive) | 17.6 µM (inactive) | 16.1 µM (inactive) | 18.7 µM (inactive) | 49.8 µM (inactive) | 15.8 µM (inactive) | 
CCc1cn(C2CC(CO)C(CO)S2)c(=O)[nH]c1=O (stereo not drawn) | > 100 µM (inactive) | > 100 µM (inactive) | > 100 µM (inactive) | > 100 µM (inactive) | > 100 µM (inactive) | > 100 µM (inactive) | > 100 µM (inactive) | > 100 µM (inactive) | > 100 µM (inactive) | > 100 µM (inactive) | > 100 µM (inactive) | > 100 µM (inactive) | > 100 µM (inactive) | > 100 µM (inactive) | > 100 µM (inactive) | > 100 µM (inactive) | > 100 µM (inactive) | > 100 µM (inactive) | > 100 µM (inactive) | > 100 µM (inactive)
CC(C)NC(=O)OCc1c(COC(=O)NC(C)C)n(C)c2c1ccc1ccsc12 | 6.46 µM (inactive) | 3.05 µM (inactive) | 7.16 µM (inactive) | 4.76 µM (inactive) | 12.7 µM (inactive) | 10.1 µM (inactive) | 12.1 µM (inactive) | 8.87 µM (inactive) | 5.57 µM (inactive) | 8.3 µM (inactive) | 5.16 µM (inactive) | 7.35 µM (inactive) | 1.71 µM (inactive) | 5.28 µM (inactive) | 5.09 µM (inactive) | 2.94 µM (inactive) |  | 16.2 µM (inactive) | 8.45 µM (inactive) | 13.5 µM (inactive)
COc1ccc(/C=C2/N/C(=N\N=C/C(O)C(O)C(O)CO)NC2=O)cc1 (stereo not drawn) | > 100 µM (inactive) and 62.4 µM (inactive) | > 100 µM (inactive) and 89.5 µM (inactive) | 55.8 µM (inactive) and 28 µM (inactive) | > 100 µM (inactive) and 71.3 µM (inactive) |  | 48.3 µM (inactive) and 42.6 µM (inactive) | > 100 µM (inactive) and 63.7 µM (inactive) | 78.2 µM (inactive) | > 100 µM (inactive) | 51.8 µM (inactive) | 15.9 µM (inactive) | > 100 µM (inactive) and 74.1 µM (inactive) | 88.1 µM (inactive) |  |  | > 100 µM (inactive) | 18 µM (inactive) | 73.6 µM (inactive) | > 100 µM (inactive) and 84.7 µM (inactive) | > 100 µM (inactive)
COC(=O)CCCc1ccc2c(c1)CCC2 | > 100 µM (inactive) | > 100 µM (inactive) | > 100 µM (inactive) | > 100 µM (inactive) | > 100 µM (inactive) | > 100 µM (inactive) |  | > 100 µM (inactive) | > 100 µM (inactive) | > 100 µM (inactive) | > 100 µM (inactive) | > 100 µM (inactive) | > 100 µM (inactive) | > 100 µM (inactive) | 92.3 µM (inactive) | > 100 µM (inactive) | > 100 µM (inactive) | > 100 µM (inactive) | > 100 µM (inactive) | > 100 µM (inactive)
CN1CCN(c2ccc(-n3cc(C(=O)O)c(=O)c4cc(F)c(N5CCN(C)CC5)cc43)nc2)CC1 | 64.7 µM (inactive) |  | 80 µM (inactive) | > 100 µM (inactive) | > 100 µM (inactive) | > 100 µM (inactive) | 65.5 µM (inactive) | > 100 µM (inactive) | > 100 µM (inactive) | > 100 µM (inactive) | > 100 µM (inactive) | > 100 µM (inactive) | > 100 µM (inactive) | > 100 µM (inactive) | 78.5 µM (inactive) | > 100 µM (inactive) | > 100 µM (inactive) | > 100 µM (inactive) | > 100 µM (inactive) | > 100 µM (inactive)
CC1=CC(=O)N(n2c(Cc3ccccc3)n[nH]c2=O)C1=O | > 100 µM (inactive) | > 100 µM (inactive) | > 100 µM (inactive) | > 100 µM (inactive) |  | > 100 µM (inactive) | > 100 µM (inactive) | > 100 µM (inactive) | 83.4 µM (inactive) | > 100 µM (inactive) | > 100 µM (inactive) | > 100 µM (inactive) | 33.9 µM (inactive) | > 100 µM (inactive) | > 100 µM (inactive) | 52 µM (inactive) | > 100 µM (inactive) | > 100 µM (inactive) | > 100 µM (inactive) | > 100 µM (inactive)
COc1ccc2sc(-n3nc4ccccc4c3Nc3nc4ccc(OC)cc4s3)nc2c1 | 1.64 µM (inactive) | 2.6 µM (inactive) | 2.13 µM (inactive) | 2.98 µM (inactive) | 1.79 µM (inactive) | 3.12 µM (inactive) | 3.59 µM (inactive) | 1.46 µM (inactive) | 5.47 µM (inactive) | 7.24 µM (inactive) | 6.47 µM (inactive) | 3.24 µM (inactive) |  | 1.73 µM (inactive) | 2.52 µM (inactive) | 0.887 µM (active) | 0.92 µM (active) | 1.94 µM (inactive) | 2.76 µM (inactive) | 4.1 µM (inactive)
Cc1ccc(/N=N/C(=N/c2ccccc2)c2ccc(N(CCC#N)CCC#N)cc2)cc1 | 37.8 µM (inactive) | 46 µM (inactive) | 13.2 µM (inactive) | 36.6 µM (inactive) | 30.1 µM (inactive) | 22 µM (inactive) | 30.9 µM (inactive) | 37 µM (inactive) |  | 33.4 µM (inactive) | 22.1 µM (inactive) | 38 µM (inactive) | 43.7 µM (inactive) | 18.3 µM (inactive) | 17.4 µM (inactive) | 39 µM (inactive) | 28.8 µM (inactive) | 30.8 µM (inactive) | 15.8 µM (inactive) | 19.3 µM (inactive)
CCOP(=O)(OCC)C(F)(F)CC1CCCCC1 | > 10 µM (inactive) | > 10 µM (inactive) | > 10 µM (inactive) | > 10 µM (inactive) | > 10 µM (inactive) | > 10 µM (inactive) | > 10 µM (inactive) | > 10 µM (inactive) | > 10 µM (inactive) | > 10 µM (inactive) | > 10 µM (inactive) | > 10 µM (inactive) | > 10 µM (inactive) | > 10 µM (inactive) |  | > 10 µM (inactive) | > 10 µM (inactive) | > 10 µM (inactive) | > 10 µM (inactive) | > 10 µM (inactive)
Nc1nc(N)c2nc(CNc3ccc(C(=O)NC(CCCCNC(=O)c4ccccc4C(=O)O)C(=O)O)cc3)cnc2n1 (stereo not drawn) | 0.01 µM (active) | 0.01 µM (active) | > 100 µM (inactive) | 0.01 µM (active) | 0.01 µM (active) | 0.445 µM (active) | 0.01 µM (active) | > 100 µM (inactive) | 0.01 µM (active) | 0.01 µM (active) | 0.01 µM (active) | 0.01 µM (active) | 0.01 µM (active) | 0.0143 µM (active) | 5.38 µM (inactive) | 0.01 µM (active) | < 0.0133 µM (active) | > 100 µM (inactive) | 0.01 µM (active) | 
